In ChEMBL document CHEMBL5050844 (2019):

Experiments:
Assay type in all cases: functional, T cell line
[1] = Induction of anti-CD3/CD28 antibodies-stimulated human T cell activation at 4 uM assessed fold increase in IL-2 secretion measured by ELISA assay
[2] = Induction of anti-CD3/CD28 antibodies-stimulated human T cell activation at 1 uM assessed fold increase in IL-2 secretion measured by ELISA assay
[3] = Induction of anti-CD3/CD28 antibodies-stimulated human T cell activation at 0.3 uM assessed fold increase in IL-2 secretion measured by ELISA assay
[4] = Induction of anti-CD3 antibodies-stimulated human T cell activation at 8 uM assessed fold increase in IL-2 secretion measured by ELISA assay; further: reference of the scale not given here
[5] = Induction of anti-CD3 antibodies-stimulated human T cell activation at 1 uM assessed fold increase in IL-2 secretion measured by ELISA assay; further: reference of the scale not given here
[6] = Induction of anti-CD3/CD28 antibodies-stimulated human T cell activation at 4 uM assessed fold increase in CD25 expression measured by ELISA assay
[7] = Induction of anti-CD3/CD28 antibodies-stimulated human T cell activation at 1 uM assessed fold increase in CD25 expression measured by ELISA assay
[8] = Induction of anti-CD3/CD28 antibodies-stimulated human T cell activation at 0.3 uM assessed fold increase in CD25 expression measured by ELISA assay
[9] = Induction of anti-CD3 antibodies-stimulated human T cell activation at 8 uM assessed fold increase in CD25 expression measured by ELISA assay; further: reference of the scale not given here
[10] = Induction of anti-CD3 antibodies-stimulated human T cell activation at 1 uM assessed fold increase in CD25 expression measured by ELISA assay; further: reference of the scale not given here

Row | Compound | fold change (FC) [1] | fold change (FC) [2] | fold change (FC) [3] | fold change (FC) [4] | fold change (FC) [5] | fold change (FC) [6] | fold change (FC) [7] | fold change (FC) [8] | fold change (FC) [9] | fold change (FC) [10]
1 | C[C@H](Cc1nncn1C)c1cccc(NC(=O)c2cc(C(=O)N3C[C@@H](O)[C@H](F)C3)ccn2)c1 | 2.51 | 1.01 | <=1 | >=0.201 | 0.151 | 1.31 | 1.01 | <=1 | 0.801 | 0.601
2 | C[C@@H](c1cccc(N2Cc3c(cccc3C(F)(F)F)C2=O)c1)C(F)(F)c1nncn1C | 2.51 | 1.01 | 1.01 | 0.101 | <=0.05 | 1.01 | 1.01 | 1.01 | 0.801 | 0.601
3 | CC(Cc1nncn1C)c1cc(N[C@@H]2CCOC2)nc(N2Cc3c(cccc3C(F)(F)F)C2=O)c1 (single isomer, unassigned) | 1.01 | 1.01 | 1.01 | 0.101 | 0.051 | 1.01 | 1.01 | <=1 | 0.801 | 0.601
4 | C[C@H](Sc1nncn1C)c1cccc(N2Cc3c(cccc3C(F)(F)F)C2=O)c1 | 1.01 | <=1 | <=1 | <=0.05 | <=0.05 | 1.01 | 1.01 | <=1 | 0.801 | 0.601
5 | Cc1ccnn1CC(C)c1cccc(NC(=O)c2cccc(C(F)(F)F)n2)c1 (stereo not given) | 1.01 | <=1 | <=1 | 0.051 | 0.051 | 1.51 | 1.31 | 1.51 | <=0.6 | <=0.6
6 | CC(C)c1cccc(C(=O)Nc2cccc([C@H](C)Sc3nncn3C)c2)n1 | >=7.5 | 2.51 | 2.51 | <=0.05 | <=0.05 | 1.01 | 1.01 | 1.01 | 0.801 | <=0.6
7 | Cc1cc(C)nc(C(=O)Nc2cccc([C@H](C)Sc3nncn3C)c2)c1 | >=7.5 | 5 | 2.51 | <=0.05 | <=0.05 | 1.01 | 1.01 | 1.01 | 0.801 | <=0.6
8 | COc1cc(C(=O)Nc2cccc([C@H](C)Cc3nncn3C)c2)nc(C(F)(F)F)c1 | 1.01 | 1.01 | 1.01 | 0.101 | 0.101 | 1.01 | 1.01 | 1.01 | 0.801 | 0.801
9 | C[C@H](Cc1nncn1C)c1cccc(NC(=O)c2ccn3nccc3n2)c1 | 2.51 | 1.01 | 1.01 | 0.151 | 0.051 | 1.01 | 1.01 | 1.01 | >=1.001 | 0.601
10 | CC(Cc1nncn1C)c1cc(C2CCC2)cc(N2Cc3c(cccc3C(F)(F)F)C2=O)c1 (stereo not given) | 1.01 | 1.01 | 1.01 | 0.051 | 0.051 | 1.01 | 1.01 | 1.01 | 0.801 | 0.601
11 | CCn1cnnc1C[C@@H](C)c1cccc(NC(=O)c2cc(C(=O)N3C[C@@H](O)C[C@H]3C)ccn2)c1 | 1.01 | <=1 | <=1 | 0.151 | 0.151 | 1.01 | 1.01 | 1.01 | 0.601 | 0.601
12 | C[C@H](Cc1nncn1C)c1cccc(NC(=O)c2cc(O[C@H]3CC[C@@H](O)C3)ccn2)c1 | 2.51 | 1.01 | 1.01 | 0.051 | <=0.05 | 1.01 | 1.01 | 1.01 | 0.801 | 0.801
13 | Cn1cnnc1C[C@](C)(F)c1cccc(N2Cc3c(cccc3C(F)(F)F)C2=O)c1 | 1.01 | 1.01 | 1.01 | 0.101 | 0.051 | 1.01 | <=1 | 1.01 | 0.801 | 0.601
